Laboratory results taken from patent publication EP2949653A1, “ISOXAZOLE DERIVATIVES AS LEUKOTRIENE BIOSYNTHESIS INHIBITORS” (Banoglu, Erden, priority 2014, dated 2015).

What was measured:
[1] = tested on: 5-LO mediated product synthesis; experiment: 5-LO mediated product synthesis in neutrophils under cell-stress (NaCl or diamide); type: cell-based; settings: in the presence of cell-stress (0.3 M NaCl or 0.25 mM diamide), human neutrophils (Figure 4A-B)
Protocol: Inhibitory activity of compound 9hj on 5-LO mediated product synthesis in human neutrophils is shifted to the right by factor 10 in the presence of cell-stress (i.e., 0.3 M NaCl or 0.25 mM diamide), which is typical for non-redox type 5-LO inhibitors or FLAP inhibitors (Figure 4A-B). To intact neutrophils, 0.3 M sodium chloride (NaCl) or vehicle (DMSO) was added 3 min before addition of 9hj at 37°C. After addition of 9hj for another 10 min at 37°C, cells were stimulated with 20 µM AA for 10 min at 37°C. Data are expressed as percentage of vehicle control (0.1% DMSO). 100% controls correspond to 174.41 ng mL^-1 for 0.3 M NaCl and 50.73 ng mL^-1 for control (DMSO) (Figure 4A). To intact neutrophils, 0.25 mM diamide or vehicle (DMSO) was added 5 min before addition of 9hj at 37°C (Figure 4b). After addition of 9hj for another 15 min at 37°C, cells were stimulated with 2.5 µM A23187 plus 20 µM AA for 10 min at 37°C. Data are expressed as percentage of vehicle control (0.1% DMSO). 100% controls correspond to 1148.61 ng mL^-1 for 0.25 mM diamide and 802.06 ng mL^-1 for control (DMSO) (Figure 4B).

PMNL = experiment: Cytotoxicity to PMNL; type: cell-based; settings: within 1 hour at 10 µM
15-LO = molecular target: T1, 15-LO (Homo sapiens, UniProt P16050); experiment: 15-LO inhibition in A23187-stimulated neutrophils; type: cell-based; settings: up to 10 µM in A23187-stimulated neutrophils
T1 construct: 12-LO or 15-LO, up to 10 µM in A23187-stimulated neutrophils; endogenous in cells; host or cells: A23187-stimulated neutrophils
T1 sequence (P16050 1-662): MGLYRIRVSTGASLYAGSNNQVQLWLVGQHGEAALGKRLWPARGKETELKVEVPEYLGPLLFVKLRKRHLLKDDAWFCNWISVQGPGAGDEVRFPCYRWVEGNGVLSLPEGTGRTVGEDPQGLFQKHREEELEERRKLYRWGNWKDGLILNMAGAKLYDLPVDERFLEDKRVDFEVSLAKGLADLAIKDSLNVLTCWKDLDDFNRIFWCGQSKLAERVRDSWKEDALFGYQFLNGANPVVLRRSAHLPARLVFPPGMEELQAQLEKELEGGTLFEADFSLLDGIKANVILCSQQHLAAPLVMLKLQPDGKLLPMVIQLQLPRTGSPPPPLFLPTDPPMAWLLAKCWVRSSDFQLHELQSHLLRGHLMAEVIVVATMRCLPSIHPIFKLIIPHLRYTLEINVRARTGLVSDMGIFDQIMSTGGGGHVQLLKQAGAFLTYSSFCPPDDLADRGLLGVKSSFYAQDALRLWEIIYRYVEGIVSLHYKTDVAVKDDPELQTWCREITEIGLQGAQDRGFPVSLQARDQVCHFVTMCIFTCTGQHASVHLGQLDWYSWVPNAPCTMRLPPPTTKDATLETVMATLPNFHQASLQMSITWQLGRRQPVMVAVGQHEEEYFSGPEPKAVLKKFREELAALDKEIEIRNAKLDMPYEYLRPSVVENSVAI

[2] = tested on: zymosan-induced peritonitis; experiment: Zymosan-induced peritonitis in mice; type: in vivo; settings: i.p., male mice, 30 min before zymosan; LTC4 levels in peritoneal exudate (Figure 9)
Protocol: Cell based and cell-free assays carried out in biological studies, immunofluorescence microscopy analysis and zymosan-induced peritonitis in mice are performed as described hereinabove (Pegola, C. and et al., British J. Pharmacology, 2014, D01:10.1111/bph.12625). In the cell based assays (intact neutrophils or monocytes), 5-LO mediated product formation is started, after pre-incubation with test compounds (or control DMSO) for 15 min. at 37 °C, with addition of Ca-ionophore A23187 (2.5 µM) to the fresh 5 x 10^6 neutrophils or monocytes suspended in 1 ml of PGC buffer (phosphate buffered saline (PBS) solution containing 1 mg ml^-1 glucose and 1mM CaCl2, pH 7.4). After the incubation for 10 min. at 37 °C, the reaction is ended with addition of 1 ml of methanol, and 30 µL 1 N HCl, 200 ng prostaglandin B1 and 500 µL PBS are added to the mixture. […] Resulting 5-LO mediated products are extracted and analysed by the known method of high pressure liquid chromatography (HPLC) (Pergola, C. Proc Natl. Acad. Sci. U.S.A. 2008, 105, 19881). 5-LO mediated product formation (LTB4 and all trans isomers, and 5 (S)-hydro(pero)xy-6-trans-8, 11, 14-cis-eicosatetraenoic acid, 5-H(p)ETE) is expressed as ng per 10^6 cell. Cysteinyl-LTs have not been analyzed because that the amount of C4, D4 and E4 and LTB4 oxidation products are below the detection limit. […]

Structure (SMILES): O=C(O)c1noc(-c2ccc(OCc3ccc4ccccc4n3)cc2)c1-c1ccc(Cl)cc1 [Compound 9hj, 4-(4-Chlorophenyl)-5-(4-(quinolin-2-ylmethoxy)phenyl)isoxazole-3-carboxylic acid]
- Inhibitory activity shifted to the right by factor [1]: 10
- cytotoxicity to PMNL (PMNL): not cytotoxic
- inhibition of 15-LO (15-LO): did not inhibit
- ID50 zymosan-induced peritonitis [2]: 7 mg/kg
